{"source": "patent US11370841B2", "about": "“Methods of treating fibroblast growth factor 19-mediated cancers and tumors” (NGM Biopharmaceuticals, Inc., priority 2016, dated 2022)", "key": {"[1]": {"tested_on": "primary human hepatocytes", "assay": "In vitro pSTAT3 activation in primary human hepatocytes", "assay_type": "cell-based", "conditions": "purified primary human hepatocytes, 50 ng/ml", "experimental": "In vitro pSTAT3 activation. Primary human hepatocytes were isolated from consenting donors using a modified collagenase/pronase method (BioReclamation/IVT). Cells were diluted in attachment media (DMEM supplemented with 2 mM glutamine, 100 unit/ml penicillin, 100 unit/ml streptomycin, and 10% FBS), and cells were plated on collagen-coated 6-well plate (Becton Dickinson). Four hours later, cells were changed into William's E media containing dexamethasone/T3/insulin and cultured for 16 hours at 37° C. When indicated, 50 ng/ml FGF19 protein or 50 ng/ml human IL-6 (Peprotech) were added.\nCell extracts were prepared in 50 mM Tris-Cl, PH 7.2, 150 mM NaCl, 1% NP-40, 0.1% SDS, 0.5% sodium deoxycholate supplemented with a protease inhibitor cocktail (Roche) and phosphatase inhibitors (Sigma, phosphatase inhibitor cocktail set 2 and set 3), and protein concentrations were determined by BCA protein assay (Thermo Scientific).\nImmunoblotting. […] Membranes were washed in TBST extensively, and bound proteins were detected with horseradish peroxidase-conjugated goat-anti-mouse IgG or goat-anti-rabbit IgG antibodies (GE Healthcare) for 1 hour at room temperature. […]\nTo investigate an in vitro direct effect of FGF19 on STAT3 activation in isolated hepatocytes, pSTAT3^Y705 levels in primary cultures of hepatocytes upon FGF19 stimulation were analyzed by western blotting. […]"}, "hepatocytes": {"tested_on": "hepatocytes", "assay": "In vivo BrdU incorporation (osmotic pump, 6 days)", "design": "species or system mice", "experimental": "In vivo BrdU incorporation. For surgical implant, mice were anesthetized with isoflurane, and osmotic pumps (#1002, Alzet) releasing 8.5 mg/kg/day 5-bromo-2-deoxyuridine (BrdU, Sigma) and 0.4 mg/kg/day FGF19 protein were implanted subcutaneously on the back on day 1. Incisions were closed with surgical clippers and 3-0 silk suture. Mice were euthanized on day 6, and serum and livers were collected for exposure and BrdU incorporation analysis.\nHistology and immunohistochemistry. […] Hematoxylin and eosin staining was performed using standard methods. […] When indicated, sections were counterstained with hematoxylin.\nFlow cytometry. For quantification of BrdU incorporation by flow cytometry, livers were minced in RPMI media containing 0.1% collagenase for 30 minutes at 37° C. and passed through 70 μm filter. […]. Cells were analyzed on a BD Caliper flow cytometer and data were collected using CellQuest software and analyzed using Flowjo program.\nTo determine the direct effect of FGF19 on hepatocyte proliferation in a cell autonomous manner, the proliferative effects of FGF19 in vivo and in isolated hepatocytes were compared by assessing the incorporation of 5-bromo-2-deoxyuridine (BrdU) into newly synthesized DNA. FGF19 was administered at a concentration of 0.4 mg/kg/day and BrdU was administered at 8.5 mg/kg/day. After being administered to mice for six days through an osmotic pump, recombinant FGF19 protein induced incorporation of BrdU into hepatocytes as evidenced by immunohistochemical staining (with hematoxylin) and by flow cytometry analysis (hepatocytes were stained with 7-AAD and anti-BrdU-APC) (FIGS. 2A and 2B). […] Plasma concentrations of FGF19 were 5.2±1.2 ng/mL at the end of the study (FIG. 2C)."}, "[2]": {"tested_on": "primary human hepatocytes", "assay": "In vitro BrdU incorporation in primary human hepatocytes", "assay_type": "cell-based", "conditions": "purified primary human hepatocytes", "experimental": "FIGS. 2A-2E depict non-cell autonomous promotion of hepatocellular proliferation by FGF19. 11 week old mice (n=5 per group) were implanted with osmotic pumps releasing BrdU (8.5 mg/kg/day) and FGF19 protein (0.4 mg/kg/day). Livers were harvested 6 days post-implant. (FIG. 2A) Flow cytometry analysis of BrdU-labeled livers is shown. Representative histograms from hepatocytes stained with 7-ADD and anti-BrdU-APC are shown. (FIG. 2B) BrdU-positive hepatocytes as a percentage of total hepatocytes from vehicle (V)-treated (n=5) or FGF19-treated (n=5) mice were quantified by flow cytometry. (FIG. 2C) Shown are circulating FGF19 levels on day 6 post-implant of osmotic pumps. (FIG. 2D) Lack of proliferative effects of FGF19 on primary mouse hepatocytes. Primary cultures of hepatocytes isolated from mouse liver were incubated with recombinant FGF19 protein at the indicated concentrations for 48 hours and BrdU was added during the last 20 hours of incubation. BrdU incorporation was determined using a luminescence method. Mouse hepatocyte growth factor (mHGF) was included as a positive control. RLU, relative luminescence unit. (FIG. 2E) Lack of proliferative effects of FGF19 on primary human hepatocytes. Primary cultures of hepatocytes isolated from human liver were incubated with recombinant FGF19 protein. Human hepatocyte growth factor (hHGF) was included as a positive control. […]"}, "hepatic mRNA levels": {"tested_on": "hepatic mRNA levels", "assay": "Hepatic gene expression in FGF19-treated db/db mice (qRT-PCR)"}, "[3]": {"conditions": "FGF19 protein 1 mg/kg i.p., 2 hours"}}, "data": [{"substance": "FGF19: Fibroblast growth factor 19, mature human 194 amino acid polypeptide (SEQ ID NO: 1); recombinant protein or AAV-expressed", "values": [{"measurement": "STAT3 activation (pSTAT3 Y705)", "setting": "[1]", "result": "lack of STAT3 activation"}, {"measurement": "BrdU-positive cells in liver (flow cytometry)", "setting": "hepatocytes; 20 μg per mouse per day (0.4 mg/kg/day) by osmotic pump, six days", "result": "9.2+1.5%"}, {"measurement": "PCNA and Ki-67 expression", "setting": "hepatocytes; FGF19-treated mice, osmotic pump, six days", "result": "higher"}, {"measurement": "Plasma concentrations of FGF19 at the end of the study", "setting": "hepatocytes; osmotic pump 0.4 mg/kg/day, day 6", "result": "5.2 ± 1.2", "unit": "ng/mL"}, {"measurement": "Proliferative effect (BrdU incorporation)", "setting": "[2]", "result": "lack of direct proliferative effect"}, {"measurement": "Hepatic mRNA levels of IL-6", "setting": "hepatic mRNA levels; [3]", "result": "increased significantly"}, {"measurement": "RNA levels of IL-11, LIF, OSM, CNTF and CTF1", "setting": "hepatic mRNA levels; [3]", "result": "remained unchanged or undetectable"}, {"measurement": "Hepatic Cyp7a1 mRNAs", "setting": "hepatic mRNA levels; acute FGF19 treatment", "result": "efficiently suppressed"}]}]}
